Several values for one entry are separate records, joined by “and”; a condition that tells them apart may be missing. Equal entries are not always repeated.
Experiments:
[1] = system: 4242Eμ-myc/Bcl-XL lymphomas; test: In vitro cell death analysis of Bcl-XL overexpressing lymphomas; format: cell-based, mouse
Excerpt: To determine if increased expression of Bcl-XL could confer resistance to romidepsin, 4242Eμ-myc/Bcl-XL lymphomas were produced and tested for sensitivity to HDACi.
(§1) […] Viability of cells as measured by trypan blue exclusion assay, propidium iodide uptake, Annexin V staining, cell cycle analysis, or tetramethylrhodamine ethyl ester staining were done as described (Lindemann et al., Proc. Nat. Acad. Sci. USA 104:8071-8078, 2007).

Eμ-myc/Bcl-2 lymphomas = test: In vitro cell death analysis (propidium iodide staining, loss of MOMP); format: cell-based, mouse; conditions: 24-h dose-response assay; Bcl-2 overexpressing
Experimental: (§2) Three different primary Eμ-myc lymphomas overexpressing Bcl-2 and control vector-transduced Eμ-myc cells were tested for sensitivity to the histone deacetylase inhibitors (HDACi) oxamflatin and romidepsin.
(§3) The primary function of prosurvival Bcl-2 proteins is to inhibit the activity of Bak and Bax proteins and thereby protect the mitochondrial membrane from damage (Cory et al., Nat. Rev. Cancer 2:647-656, 2002). To determine if the induction of apoptosis mediated by romidepsin in 4242Eμ-myc/Bcl-2 and 229Eμ-myc/Bcl-2 lymphomas was via perturbation of the mitochondrial membrane or through some other mechanism, HDACi-induced mitochondrial outer membrane permeabilization (MOMP) was quantitated by staining with tetramethylrhodamine ethyl ester (Molecular Probes).
as §1

Eμ-myc lymphomas [2] = test: as above; format: cell-based, mouse
Experimental: as §2, §3, §1

[3] = system: 4242Eμ-myc/Bcl-2 lymphomas; test: In vitro cell death analysis, time course; format: cell-based, mouse; conditions: 3.0 nmol/L; up to 72 h
Excerpt: as §3, §1

[4] = system: 226Eμ-myc/Bcl-2 lymphomas; test: In vitro cell death analysis, time course; format: cell-based, mouse; conditions: 3.0 nmol/L; up to 72 h
[5] = system: acetylated histones H3 and H4; test: Western blot analysis of histone acetylation status; format: cell-based, mouse; conditions: for histone acetylation: 3.0 nmol/L, 2, 8, 24 h
Experimental: Eμ-myc lymphoma cells were lysed in lysis buffer [0.15 mol/L NaCl, 10 mmol/L Tris-HCl (pH 7.4), 5 μmol/L EDTA, 1% Triton X-100] supplemented with protease inhibitors (leupeptin, pepstatin, and phenylmethylsulfonyl fluoride; Sigma-Aldrich) as described previously (Lindemann et al., Proc. Nat. Acad. Sci. USA 104:8071-8078, 2007). Proteins (30-50 μg) were separated on 10% or 15% SDS polyacrylamide gels electroblotted onto Immobilon-P […] membranes (Millipore). Membranes were incubated with the following antibodies: anti-mouse Bcl-2 (BD PharMingen), anti-mouse Bcl-XL (BD PharMingen), anti-mouse Bcl-w (Chemicon Australia), anti-mouse Mcl-1 (Rockland), anti-mouse A1 (Sapphire Biosciences), anti-Flag tag (Sigma-Aldrich), anti-acetylated histone H3 and antiacetylated histone H4 (Upstate Biosystems), anti-β actin (Sigma-Aldrich), and anti-tubulin (Sigma-Aldrich) overnight at 4° C. followed by subsequent incubation with horseradish peroxidase-conjugated secondary antibodies (DAKO) Immunoreactive bands were visualized by enhanced chemiluminescence (Amersham).

[6] = Maximum tolerated dose in lymphoma-bearing mice; conditions: i.v. once every 4 days for a total of four injections
Experimental: For in vivo apoptosis assays, C57BL/6 mice were injected with Eμ-myc lymphomas (5×10^5 cells per animal) and after 10 to 15 days on which lymph nodes became well-palpable romidepsin (5.6 mg/kg) was administered i.v. After the indicated time points, mice were sacrificed and cells were harvested from brachial lymph nodes for fluorescence-activated cell sorting-based assays to measure apoptotic signaling (Lindemann et al., Proc. Nat. Acad. Sci. USA 104:8071-8078, 2007). To assess therapeutic efficacy of romidepsin, C57BL/6 mice were injected with Eμ-myc lymphomas of the indicated genotypes i.v. (5×10^5 cells per animal). Peripheral WBC counts were then monitored until they exceeded 13×10^3/μL (Sysmex Hematology Analyzer K-1000) and romidepsin was administered at 5.6 mg/kg i.v. once every 4 days for a total of four injections. […] Mice in the control cohort received the corresponding amount of vehicle. Cohorts consisted of 8 to 11 mice each, 2 to 3 independently derived lymphomas per genotype. Peripheral WBC counts and body weights were recorded weekly. On signs of major distress or when lymphomas were relapsing as indicated by enlarged brachioaxial lymph nodes, mice were euthanized and a necropsy was done. For analysis of therapeutic efficacy, tumor-induced mortality “events” were recorded. […]

[7] = system: 4242Eμ-myc/Bcl-2 lymphomas; test: Cell cycle analysis of Eμ-myc/Bcl-2 cells treated with HDACi; format: cell-based, mouse; conditions: 4242/Bcl-2
Experimental: (§4) Next, the cell cycle profiles of Eμ-myc/Bcl-2 lymphomas treated with oxamflatin and romidepsin over 3 days were assessed.
as §1

[8] = system: 226Eμ-myc/Bcl-2 lymphomas; test: as above; format: cell-based, mouse; conditions: 226/Bcl-2
Experimental: as §4, §1

[9] = system: 229Eμ-myc/Bcl-2 lymphomas; test: In vivo apoptosis assay; set-up: species or system C57BL/6 mice; conditions: 5.6 mg/kg i.v.; later time points (>24 h)
Experimental: (§5) For in vivo apoptosis assays, C57BL/6 mice were injected with Eμ-myc lymphomas (5×10^5 cells per animal) and after 10 to 15 days on which lymph nodes became well-palpable romidepsin (5.6 mg/kg) was administered i.v. After the indicated time points, mice were sacrificed and cells were harvested from brachial lymph nodes for fluorescence-activated cell sorting-based assays to measure apoptotic signaling (Lindemann et al., Proc. Nat. Acad. Sci. USA 104:8071-8078, 2007). To assess therapeutic efficacy of romidepsin, C57BL/6 mice were injected with Eμ-myc lymphomas of the indicated genotypes i.v. (5×10^5 cells per animal). Peripheral WBC counts were then monitored until they exceeded 13×10^3/μL (Sysmex Hematology Analyzer K-1000) and romidepsin was administered at 5.6 mg/kg i.v. once every 4 days for a total of four injections. […] Mice in the control cohort received the corresponding amount of vehicle. Cohorts consisted of 8 to 11 mice each, 2 to 3 independently derived lymphomas per genotype. Peripheral WBC counts and body weights were recorded weekly. On signs of major distress or when lymphomas were relapsing as indicated by enlarged brachioaxial lymph nodes, mice were euthanized and a necropsy was done. For analysis of therapeutic efficacy, tumor-induced mortality “events” were recorded. Kaplan-Meier analysis was done and comparisons made using the log-rank (Mantel-Cox) test (MedCalc software version 8.0.2.0).

[10] = system: 4242Eμ-myc/Bcl-2 lymphomas; test: In vivo apoptosis assay; set-up: species or system C57BL/6 mice; conditions: 5.6 mg/kg i.v.; later time points (>24 h)
Experimental: as §5

[11] = system: 102Eμ-myc/Bcl-2 lymphomas; test: In vivo apoptosis assay; set-up: species or system C57BL/6 mice; conditions: 5.6 mg/kg i.v.; even at 48 h
Experimental: as §5

Eμ-myc lymphomas [12] = test: In vivo apoptosis assay; set-up: species or system C57BL/6 mice; conditions: all four Eμ-myc lymphomas in lymph nodes; 5.6 mg/kg i.v.; 24-h time course
Experimental: as §5

(1S,4S,10S,16E,21R)-7-[(2Z)-ethylidene]-4,21-diisopropyl-2-oxa-12,13-dithia-5,8,20,23-tetraazabicyclo[8.7.6]tricos-16-ene-3,6,9,19,22-pentanone [Romidepsin]
plasma membrane integrity and mitochondrial function ([1]; increasing concentrations over 24 h): unaffected
cell cycle analysis ([1]; increasing doses): arrested in the G1 phase
cell killing (outer cell membrane damage, loss of mitochondrial membrane potential) (Eμ-myc/Bcl-2 lymphomas): but not Eμ-myc/Bcl-2 lymphomas
cell killing (outer cell membrane damage, loss of mitochondrial membrane potential) (Eμ-myc lymphomas [2]; 24-h dose-response assay): could effectively kill
concentration of HDACi required to kill ˜70% of Eμ-myc lymphomas following 24-h treatment (Eμ-myc lymphomas [2]; 24-h treatment): 3.0 nmol/L and 3 nmol/L
cell killing in time course [3]: could kill
cell killing in time course [4]: remained relatively insensitive
histone acetylation ([5]; 226Eμ-myc/Bcl-2 lymphomas): equivalent increase in histone acetylation
acetylation of histones H3 and H4 ([5]; 4242Eμ-myc lymphomas, 3.0 nmol/L romidepsin, 0.1 mmol/L oxamflatin, 24-h time course): induced equivalent acetylation of histones H3 and H4
histone acetylation ([5]; 4242Eμ-myc/Bcl-2 lymphomas): equivalent increase in histone acetylation
maximum tolerated dose [6]: 5.6 mg/kg
% G1 ([7]; 24 hr): 66.3%
% G2/M ([7]; 24 hr): 11.4%
% S phase ([7]; 24 hr): 2.1%
% subG1 ([7]; 24 hr): 19.3%
% G1 ([7]; 48 hr): 53.2%
% G2/M ([7]; 48 hr): 8.5%
% S phase ([7]; 48 hr): 4.6%
% subG1 ([7]; 48 hr): 27.2%
% G1 ([7]; 72 hr): 34.8%
% G2/M ([7]; 72 hr): 7.1%
% S phase ([7]; 72 hr): 3.0%
% subG1 ([7]; 72 hr): 55.3%
% G1 ([8]; 24 hr): 48.6%
% G2/M ([8]; 24 hr): 26.6%
% S phase ([8]; 24 hr): 16.4%
% subG1 ([8]; 24 hr): 3.7%
% G1 ([8]; 48 hr): 52.3%
% G2/M ([8]; 48 hr): 27.1%
% S phase ([8]; 48 hr): 13.5%
% subG1 ([8]; 48 hr): 3.7%
% G1 ([8]; 72 hr): 78.3%
% G2/M ([8]; 72 hr): 8.7%
% S phase ([8]; 72 hr): 2.5%
% subG1 ([8]; 72 hr): 7.8%
apoptosis in vivo [9]: did undergo apoptosis at later time points
apoptosis in vivo [10]: did undergo apoptosis at later time points
apoptosis in vivo [11]: remained insensitive
apoptosis in vivo (outer cell membrane damage, DNA fragmentation) (Eμ-myc lymphomas [12]): sensitive to romidepsin
